Data published in ChEMBL document CHEMBL2176908, “Structure-aided design of novel inhibitors of HIV protease based on a benzodiazepine scaffold” (J Med Chem, 2012).
pIC50, pKi: −log10 of the molar value. Calls of active or inactive are those of the source. The rule behind the calls is not given here.

Key:
Protease [1] = target: T1, Protease (Human immunodeficiency virus 1, UniProt Q9YQ12); test: Inhibition of HIV1 protease by spectrophotometric assay
Protease [2] = target: T1, Protease; test: Inhibition of HIV1 protease by double-reciprocal Lineweaver-Burk plot; conditions: read-out: Ki(app)
[3] = target: Cathepsin D (Homo sapiens) (UniProt P07339); test: Inhibition of human cathepsin D spectrofluorometry
Chain of Cathepsin D (Homo sapiens) (P07339 65-162 limits assumed): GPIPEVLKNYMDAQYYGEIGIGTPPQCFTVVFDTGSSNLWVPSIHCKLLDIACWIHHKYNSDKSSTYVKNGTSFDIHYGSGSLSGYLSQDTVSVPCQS
Chain of Cathepsin D (Homo sapiens) (P07339 169-412 limits assumed): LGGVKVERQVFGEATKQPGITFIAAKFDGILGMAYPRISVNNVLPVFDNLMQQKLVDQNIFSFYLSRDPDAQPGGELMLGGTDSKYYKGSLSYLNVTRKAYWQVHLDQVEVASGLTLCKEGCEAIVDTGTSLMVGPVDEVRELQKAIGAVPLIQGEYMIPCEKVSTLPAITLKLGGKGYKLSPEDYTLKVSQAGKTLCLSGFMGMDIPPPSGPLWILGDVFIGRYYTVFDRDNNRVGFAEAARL

Papain (Carica papaya) = target: T2, Papain (Carica papaya) (UniProt P00784); test: Inhibition of papaya papain by spectrofluorometry
T2 sequence (whole entry): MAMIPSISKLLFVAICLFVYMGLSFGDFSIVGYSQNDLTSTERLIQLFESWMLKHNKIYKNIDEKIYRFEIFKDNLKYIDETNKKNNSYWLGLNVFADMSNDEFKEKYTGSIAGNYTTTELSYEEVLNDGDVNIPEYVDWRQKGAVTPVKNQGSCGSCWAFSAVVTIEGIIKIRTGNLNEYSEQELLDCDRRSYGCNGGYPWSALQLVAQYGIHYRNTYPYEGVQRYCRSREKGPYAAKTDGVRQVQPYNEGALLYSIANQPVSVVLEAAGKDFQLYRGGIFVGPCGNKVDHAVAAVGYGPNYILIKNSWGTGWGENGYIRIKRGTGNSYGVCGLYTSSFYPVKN

T1 sequence (Q9YQ12 whole entry): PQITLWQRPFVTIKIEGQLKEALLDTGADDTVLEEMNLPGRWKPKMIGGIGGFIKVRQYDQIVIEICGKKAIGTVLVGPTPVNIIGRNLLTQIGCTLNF

Row | SMILES | pIC50 (Protease [1]) | pKi (Protease [2]) | inhibition [3] | inhibition (Papain (Carica papaya))
1 | CC1(C)CC(=O)C2=C(C1)Nc1ccccc1N(C(=O)C(=O)N1CC3=C(CC(C)(C)CC3=O)Nc3ccccc31)C2 | 6.70 | ≥ 7.92 |  | 
2 | CC1(C)CC(=O)C2=C(C1)Nc1ccccc1N(C(=O)C(=O)N1c3ccccc3NC3=C(C(=O)CC(C)(C)C3)[C@H]1c1ccccc1)[C@H]2c1ccccc1 | < 6.00 | ≥ 7.92 |  | 
3 | O=C1CC(c2ccccc2)CC2=C1C(c1ccccc1)N(C(=O)C(=O)N1c3ccccc3NC3=C(C(=O)CC(c4ccccc4)C3)C1c1ccccc1)c1ccccc1N2 (mixture of isomers) | 7.22 | ≥ 7.92 |  | 
4 | O=C1CC(c2ccccc2)CC2=C1C(c1ccccc1)Nc1ccccc1N2 (mixture of isomers) | 4.70 | ≥ 7.92 |  | 
5 | COc1cc([C@@H]2Nc3ccccc3NC3=C2C(=O)C[C@@H](c2ccccc2)C3)cc(Cl)c1O (mixture of isomers) | 5.37 | ≥ 7.92 |  | 
6 | CC1(C)CC(=O)C2=C(C1)Nc1ccccc1N(C(=O)C(F)(F)C(=O)N1c3ccccc3NC3=C(C(=O)CC(C)(C)C3)C1c1ccccc1)C2c1ccccc1 (mixture of isomers) | 6.52 | ≥ 7.92 |  | 
7 | CC1(C)CC(=O)C2=C(C1)Nc1ccccc1N(C(=O)C(=O)N1c3ccccc3NC3=C(C(=O)CC(C)(C)C3)C1c1ccccc1)C2c1ccccc1 (mixture of isomers; 5) | 7.52 | ≥ 7.92 |  | 
8 | CC1(C)CC(=O)C2=C(C1)Nc1ccccc1N(C(=O)C(=O)N1c3ccccc3NC3=C(C(=O)CC(C)(C)C3)C1c1ccccc1)C2c1ccccc1 (mixture of isomers; 5a) [listing 1 of 2 here] | 7.52 |  |  | 
9 | CC1(C)CC(=O)C2=C(C1)Nc1ccccc1N(C(=O)C(=O)N1c3ccccc3NC3=C(C(=O)CC(C)(C)C3)C1c1ccccc1)C2c1ccccc1 (mixture of isomers; 5a) [listing 2 of 2 here] |  |  | inactive | inactive
10 | CC1(C)CC(=O)C2=C(C1)Nc1ccccc1N(C(=O)C(=O)N1c3ccccc3NC3=C(C(=O)CC(C)(C)C3)C1c1ccccc1)C2 (racemic) | 7.00 | ≥ 7.92 |  | 
11 | CC1(C)CC(=O)C2=C(C1)Nc1ccccc1NC2c1ccccc1 (racemic) | 3.96 | ≥ 7.92 |  | 
